Data as given in patent publication US7501413B2, “Dicarboxamide derivatives” (Hoffmann-La Roche Inc., priority 2004, dated 2009).

Molecular target: T1, human factor Xa (Homo sapiens, UniProt P00742)
T1 construct: purchased Enzyme Research Laboratories
Experiment: Factor Xa chromogenic peptide substrate assay (S-2222)
Type: biochemical
Details: human factor Xa 3 nM, chromogenic substrate S-2222 at 200 nM, HNPT buffer pH 7.8, room temperature; apparent Ki calculated from IC50 (Cheng-Prusoff), Km 613 μM
Method: Factor Xa activity was measured spectrophotometrically in microtiter plates in a final volume of 150 μl using the following conditions: Inhibition of human factor Xa (Enzyme Research Laboratories) was tested at an enzyme concentration of 3 nM using the chromogenic substrate S-2222 (Chromogenix AB, Mölndal, Sweden) at […]. The reaction kinetics of the enzyme and the substrate were linear with both time and the enzyme concentration. The inhibitors were dissolved in DMSO and tested at various concentrations up to 100 μM. The inhibitors were diluted using HNPT buffer consisting of HEPES 100 mM, NaCl 140 mM, PEG 6000 0.1% and Tween 80 0.02%, pH 7.8. The cleavage of S-2222 by human factor Xa was followed at 405 nm for 5 minutes at room temperature. The velocity of the reaction was determined by the autoreader from the slope of the linear regression fit to 7 time points (1 minute). The initial velocity for each inhibitor concentration was determined by the slope of at least 4 time points in the linear phase by a linear regression fit (mOD/min^2). Apparent dissociation constants Ki were calculated according to Cheng and Prusoff [Cheng, Y. C.; Prusoff, W. H. Relationship between the inhibition constant (Ks) and the concentration of the inhibitor that causes 50 percent inhibition (IC50) of an enzyme reaction. Biochem. Pharmacol. 1973, 22, 3099-3108.] based on the IC50 and the respective Km, determined previously (Ki=IC50/(1+S/Km)). The Km for the substrate used was determined under the conditions of the test with at least 5 substrate concentrations ranging from 0.5 to 15 times Km. [Lottenberg R, Hall J A, Blinder M, Binder E P, Jackson C M., The action of thrombin on peptide p-nitroanilide substrates. Substrate selectivity and examination of hydrolysis under different reaction conditions. Biochim Biophys Acta. 1983 Feb. 15; 742(3):539-57]. according to Eadie [Eadie G. S. The inhibition of cholinesterase by physostigmine and prostigmine. J. Biol. Chem. 1942, 146, 85-93.]. The Km for S-2222 amounted to 613 μM.

T1 sequence (P00742 235-488 limits assumed): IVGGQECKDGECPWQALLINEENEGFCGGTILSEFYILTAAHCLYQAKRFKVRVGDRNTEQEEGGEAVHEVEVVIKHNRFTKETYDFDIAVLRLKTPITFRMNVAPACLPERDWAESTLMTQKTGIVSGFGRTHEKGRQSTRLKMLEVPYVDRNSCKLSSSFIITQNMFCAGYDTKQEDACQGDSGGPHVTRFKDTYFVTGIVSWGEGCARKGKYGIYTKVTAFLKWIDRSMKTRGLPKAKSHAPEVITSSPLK
T1 sequence (P00742 41-179 partner limits assumed): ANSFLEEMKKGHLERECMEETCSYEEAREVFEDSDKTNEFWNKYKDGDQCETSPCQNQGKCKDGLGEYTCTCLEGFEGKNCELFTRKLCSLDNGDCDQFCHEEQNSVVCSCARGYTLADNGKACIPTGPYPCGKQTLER

## COC1(CO)C[C@H](C(=O)Nc2ccc(Cl)cc2)[C@@H](C(=O)Nc2ccc(-n3ccccc3=O)cc2F)C1 (single isomer, unassigned) [Example 47, (1S,2S,4S)- or (1S,2S,4R)-4-Hydroxymethyl-4-methoxy-cyclopentane-1,2-dicarboxylic acid 1-[(4-chloro-phenyl)-amide]2-{[2-fluoro-4-(2-oxo-2H-pyridin-1-yl)-phenyl]-amide}]
  Ki: 0.009 µM

## O=C(Nc1ccc(Cl)cc1)[C@H]1C[C@@H](O)C[C@H]1C(=O)Nc1ccc(-n2ccccc2=O)cc1F [Example 52, (1S,2S,4S)-4-Hydroxy-cyclopentane-1,2-dicarboxylic acid 1-[(4-chloro-phenyl)-amide]2-{[2-fluoro-4-(2-oxo-2H-pyridin-1-yl)-phenyl]-amide}]
  Ki: 0.013 µM

## O=C(Nc1ccc(Cl)cc1)[C@H]1CC2(CC2)C[C@@H]1C(=O)Nc1ccc(-n2ccccc2=O)cc1F [Example 48, (5S,6S)-Spiro[2.4]heptane-5,6-dicarboxylic acid (4-chloro-phenyl)-amide [2-fluoro-4-(2-oxo-2H-pyridin-1-yl)-phenyl]-amide]
  Ki: 0.008 µM
